Source: patent US12433860B2, “Treatment of multiple sclerosis comprising DHODH inhibitors” (Immunic AG, priority 2021, dated 2025)
Counter-ions that a name gives are not always drawn.

What was measured:
[1] = tested on: patients with relapsing-remitting multiple sclerosis; assay: EMPhASIS phase 2 trial Cohort 1: MRI lesions up to 24 weeks; type: in vivo, human
Description: Study design and participants: […] Eligible patients were randomly assigned in a 1:1:1 ratio by an interactive web response system to receive once-daily vidofludimus calcium (30 mg or 45 mg) or placebo over a 24 week period. Procedures: Participants took vidofludimus calcium (30 mg or 45 mg) or placebo once daily in the morning in a fasted state (before breakfast) for 24 weeks. To minimize the risk of changes to uric acid during the first seven days of dosing (induction phase), the assigned dose (containing vidofludimus calcium 15 mg, vidofludimus calcium 22.5 mg or placebo) was taken days 0-6 and then the full dose thereafter (maintenance phase). Participants underwent standardized brain MRI scans at baseline and every 6 weeks after the first day of dosing until week 24. MRI scans were centrally analyzed by a blinded and independent MRI center. […] In the case of suspected or protocol-defined confirmed relapse, corticosteroid treatment was provided at the discretion of the investigator. Pharmacokinetic and pharmacodynamic measurements were also collected. Outcomes: The primary endpoint was the difference in the cumulative number of combined unique active (CUA) lesions up to week 24 between vidofludimus calcium 45 mg and placebo in the intention-to-treat population (i.e., weeks 6 to 24). The key secondary was the same outcome between vidofludimus calcium 30 mg and placebo. A sensitivity analysis of the primary endpoint and key secondary endpoint was done in the per-protocol population and the modified intention-to-treat population. In addition, prespecified subgroup analyses of the primary endpoint and key secondary endpoint in the intention-to-treat population were done based on baseline demographics (gender, age, weight, country), MRI characteristics (gadolinium-enhancing lesions strata) and clinical characteristics (EDSS score, duration of disease and relapse history). […] Other secondary endpoints included: the difference in the cumulative number of combined unique active lesions up to week 24 between vidofludimus calcium 45 mg and vidofludimus calcium 30 mg; number or cumulative number of gadolinium-enhancing, T1, or T2 lesions up to 24 weeks; annualized relapse rate from baseline until week 24; proportion of relapse-free patients up to week 24; time-to-first relapse; change in EDSS score from baseline; proportion of patients with EDSS score progression; brain atrophy and other MRI endpoints; and safety and tolerability as assessed by the investigators. Annualized relapse rate was defined as the total number of confirmed relapses divided by the real exposure time in years assessed over the time during the double-blind treatment period. EDSS progression was defined as an increase compared to baseline of at least 1.0 point for patients with a baseline EDSS score of 1.0 to 4.0 or of at least 1.5 points for patients with a baseline EDSS score of 0. Vidofludimus calcium trough concentrations (weeks 6 and 24) were used to assess the correlation between pharmacokinetics and MRI-based assessments. The effects of vidofludimus calcium on serum neurofilament (baseline and week 24) were also analyzed. Statistical analysis: The primary and secondary efficacy endpoints were analyzed using a generalized linear model with a negative binomial distribution and a logarithmic link function. Independent effects included in the model were: treatment group; baseline volume of T2 lesions; MRI field strength; and baseline number of gadolinium-enhancing lesions. The natural log transformation of the time from the first dose to the date of the last MRI assessment was included as an offset term to account for different lengths of treatment.

[2] = tested on: patients with relapsing-remitting multiple sclerosis; assay: EMPhASIS Cohort 1: annualized relapse rate and time-to-first relapse; type: in vivo, human; conditions: for adjusted mean annualized relapse rate: baseline until week 24
Description: Other secondary endpoints included: the difference in the cumulative number of combined unique active lesions up to week 24 between vidofludimus calcium 45 mg and vidofludimus calcium 30 mg; number or cumulative number of gadolinium-enhancing, T1, or T2 lesions up to 24 weeks; annualized relapse rate from baseline until week 24; proportion of relapse-free patients up to week 24; time-to-first relapse; change in EDSS score from baseline; proportion of patients with EDSS score progression; brain atrophy and other MRI endpoints; and safety and tolerability as assessed by the investigators. Annualized relapse rate was defined as the total number of confirmed relapses divided by the real exposure time in years assessed over the time during the double-blind treatment period. EDSS progression was defined as an increase compared to baseline of at least 1.0 point for patients with a baseline EDSS score of 1.0 to 4.0 or of at least 1.5 points for patients with a baseline EDSS score of 0. Vidofludimus calcium trough concentrations (weeks 6 and 24) were used to assess the correlation between pharmacokinetics and MRI-based assessments. The effects of vidofludimus calcium on serum neurofilament (baseline and week 24) were also analyzed. All other secondary efficacy analyses were reported using descriptive statistics and were considered exploratory. The mean number or cumulative number of gadolinium-enhancing (Gd+), T1, or T2 lesions were summarized descriptively and analyzed with a generalized linear model as described earlier but adjusted for MRI field strength and baseline number of gadolinium-enhancing lesions only. Annualized relapse rate was compared between treatment groups and between the pooled vidofludimus calcium groups and placebo using a generalized linear model adjusted for baseline number of gadolinium-enhancing lesions, which included the offset term for real exposure time. Time-to-first relapse up to 24 weeks was analyzed using a Cox proportional hazards model, with covariates for treatment group and baseline gadolinium-enhancing lesions strata. The proportion of patients free of relapse was estimated using the Kaplan-Meier method. Statistical analyses were done using SAS version 9.4 (SAS Institute, Cary, NC, USA).

[3] = Pre-clinical, clinical and single and multiple-dose Phase 1 studies: safe daily dose; type: in vivo; conditions: once daily
human DHODH = human DHODH (Homo sapiens, UniProt Q02127); conditions: cited from earlier work
Chain of human DHODH (Q02127 whole entry): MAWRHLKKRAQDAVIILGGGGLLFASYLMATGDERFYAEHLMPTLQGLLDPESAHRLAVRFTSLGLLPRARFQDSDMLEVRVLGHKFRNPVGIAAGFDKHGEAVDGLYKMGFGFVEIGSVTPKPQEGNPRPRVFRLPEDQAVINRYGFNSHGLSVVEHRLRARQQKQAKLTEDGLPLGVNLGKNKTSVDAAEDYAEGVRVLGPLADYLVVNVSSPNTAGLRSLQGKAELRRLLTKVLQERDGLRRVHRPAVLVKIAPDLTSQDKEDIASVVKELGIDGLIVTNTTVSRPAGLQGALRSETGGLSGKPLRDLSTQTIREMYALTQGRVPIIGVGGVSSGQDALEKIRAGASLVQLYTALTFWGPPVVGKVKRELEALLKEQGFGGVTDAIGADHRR

For `COc1cccc(-c2ccc(NC(=O)C3=C(C(=O)O)CCC3)c(F)c2)c1` [vidofludimus calcium, 1-cyclopentene-1-carboxylic acid, 2-(((3-fluoro-3′-methoxy(1,1′-biphenyl)-4-yl)amino)carbonyl)-, calcium salt (2:1)], the “suppression of MRI activity” value ([1]; 30 mg dose, after 24-weeks of treatment, rrMS) was 70%, the “cumulative number of new gadolinium-enhancing lesions at week 24” value ([1]; 30 mg once daily) was 4.5 (95% Cl 2.7-7.7) and the “Cumulative CUA lesions up to 24 weeks, adjusted mean (95% CI)” value (from here on “Cumulative CUA lesions up … (95% CI)”) ([1]; 30 mg once daily, key secondary endpoint analysis (30 mg vs placebo), intention-to-treat) was 4.0 (2.2-7.2). For the same compound, the “Cumulative CUA lesions up … (95% CI)” value ([1]; 30 mg once daily, secondary endpoint analysis (45 mg vs 30 mg), intention-to-treat) was 4.2 (2.5-7.1), the “Rate ratio, cumulative CUA lesions up to 24 weeks” value (“Rate ratio … to 24 weeks” for short) ([1]; 30 mg vs placebo, intention-to-treat) was 0.30 and the “cumulative number of new gadolinium-enhancing lesions at week 24” value ([1]; 45 mg once daily) was 4.0 (95% Cl 2.1-7.8). For the same compound, the “Cumulative CUA lesions up … (95% CI)” value ([1]; 45 mg once daily, primary endpoint analysis (45 mg vs placebo), intention-to-treat) was 2.4 (1.1-4.9), the “Cumulative CUA lesions up … (95% CI)” value ([1]; 45 mg once daily, secondary endpoint analysis (45 mg vs 30 mg), intention-to-treat) was 4.4 (2.4-8.1) and the “Rate ratio … to 24 weeks” value ([1]; 45 mg vs placebo, intention-to-treat) was 0.38. The “Rate ratio … to 24 weeks” value ([1]; secondary endpoint (45 mg vs 30 mg), printed in the 30 mg line) was 0.96, the “adjusted mean annualized relapse rate” value ([2]; 30 mg once daily) was 0.39 (95% Cl 0.22-0.69) and the “hazard ratio for relapse up to 24 weeks” value ([2]; 30 mg vs placebo) was 0.58 (95% Cl: 0.26-1.29). For the same compound, the “rate ratio, annualized relapse rate” value ([2]; 30 mg vs placebo) was 0.72 (95% Cl 0.34-1.55), the “adjusted mean annualized relapse rate” value ([2]; 45 mg once daily) was 0.48 (95% Cl 0.28-0.82) and the “hazard ratio for relapse up to 24 weeks” value ([2]; 45 mg vs placebo) was 0.78 (95% Cl: 0.37-1.59). For the same compound, the “rate ratio, annualized relapse rate” value ([2]; 45 mg vs placebo) was 0.90 (95% Cl 0.44-1.86), the “daily dose considered safe” value [3] was “up to 50 mg” and the “potency against human DHODH” value (human DHODH) was “submicromolar potency”.
